Experimental data: patent US20160045531A1, “COMBINATION THERAPY FOR TREATING CANCER” (EPIZYME, INC., priority 2014, published 2016)

Legend:
[1] = system: SKM-1 (non-MLL-rearranged AML); assay: Combination proliferation study with Compound A2 (Examples 2/3), SKM-1; format: cell-based, human; settings: in combination with Compound A2
Procedure: (§1) The HP-D300 digital dispenser (Tecan) was used to dispense compounds in a combinatorial matrix. […] Cell viability was measured via ATP content using CellTiter-Glo® (Promega).
(§2) Viability was determined using CellTiter-Glo® (Promega).

SKM-1 cells = assay: Proliferation assay and calculation of synergism (Example 5), SKM-1; settings: combination with Compound A2
Source text: The acute myelogenous leukemia cell line MV4-11 (MLL-AF4) (CRL-9591) was obtained from American Type Culture Collection (ATCC), Manassas, Va. and both MOLM-13 (MLL-AF9) (ACC 554) and SKM-1 (ACC 547) cells were obtained from Leibniz Institute DSMZ-German Collection of Microorganisms and Cell Cultures, Braunschweig, Germany. MV4-11 cells were maintained in IMDM supplemented with 10% fetal bovine serum. MOLM-13 and SKM-1 cells were maintained in Roswell Park Memorial Institute medium (RPMI) supplemented with 10% fetal bovine serum. They were cultured in flasks or plates in a humidified 5% CO2 atmosphere.
(§4) Proliferation studies were performed using MOLM-13, MV4-11 and SKM-1 cell lines in vitro to evaluate the cancer cell killing effect of a combination of two agents together on cell growth. Initial proliferation studies were performed to determine the IC50 values of a given compound in each cell line. The cell counts were measured by ATP quantitation using the Promega Cell Titer Glo kit and luminescence values correspond to the amount of ATP in a given well.
(§5) These studies were performed to evaluate both the combinatorial effect of compounds on cell killing and the durability of the effect by washing out one of the agents.
(§6) Compounds evaluated for synergy in the co-treatment phase were tested in a range which was bracketed around the IC50's. The compounds were plated to a 96 well plate in a matrix format which includes increasing concentrations of each drug in the combination in a constant ratio, in addition to the effect of each compound alone in the study. […] Maximum and minimum inhibition (DMSO alone) controls were used in each plate to calculate fraction affected (Fa) of a test well. DMSO concentration was kept at 0.1% v/v. The drug combination analysis was performed utilizing the Chou-Talalay method. Synergy was determined using the software package Calcusyn by Biosoft. The combination index (CI) is the term used to describe the level of synergy or antagonism in a given test system. A combination index less than one indicates synergy, and a CI greater than one indicates antagonism.
(§7) The drug combination analysis was performed using the Chou-Talalay method. Graphs representing values of combination index (CI) versus Fractional effect (Fa) known as Fa-CI plots were generated and synergy was evaluated. Drug synergy was statistically defined by CI values less than 1, antagonism by CI>1 and additive effect by CI equal to 1.

[2] = system: MV4-11 (MLL-AF4 expressing acute biphenotypic leukemia cell line); assay: Combination proliferation study with Compound A2 (Examples 2/3), MV4-11; format: cell-based, human; settings: in combination with Compound A2; Chou-Talalay CI
Procedure: as §1, §2

[3] = system: Molm-13 (MLL-AF9 expressing acute myeloid leukemia); assay: Combination proliferation study with Compound A2 (Examples 2/3), MOLM-13; format: cell-based, human; settings: for Combination studies with Compound A2, MOLM-13 MLL-AF9: in combination with Compound A2, Chou-Talalay CI
Procedure: as §1, §2

MOLM-13 (MLL-AF9) = assay: Proliferation assay and calculation of synergism (Example 5), MOLM-13; format: cell-based, human; settings: for Combination with Compound A2, pre-treatment model with washout, MOLM-13: Compound A2 washed out prior to the addition of the SOC agent; for Combination with Compound A2, pre-treatment model, MOLM-13: no Compound A2 washout; for Combination with Compound A2, MOLM-13 (MLL-AF9): 7 Day Cotreatment Model, Chou-Talalay CI
Procedure: (§8) MV4-11 cells were maintained in IMDM supplemented with 10% fetal bovine serum. […] They were cultured in flasks or plates in a humidified 5% CO2 atmosphere.
as §4, §5, §6, §7

MV4-11 (MLL-AF4) = assay: Proliferation assay and calculation of synergism (Example 5), MV4-11; format: cell-based, human; settings: for Combination with Compound A2, pre-treatment model with washout, MV4-11: Compound A2 washed out prior to the addition of the SOC agent; for Combination with Compound A2, pre-treatment model, MV4-11: no Compound A2 washout; for Combination with Compound A2, MV4-11 (MLL-AF4): 7 Day Cotreatment Model, Chou-Talalay CI
Procedure: as §8, §4, §5, §6, §7

[4] = system: MV4-11 (MLL-AF4) cell line; assay: Combination proliferation study with Compound A2 (Example 1), MV4-11; format: cell-based, human; settings: 7 Day Cotreatment; Chou-Talalay CI
Source text: (§3) The acute myelogenous leukemia cell lines MV4-11 (MLL-AF4) and MOLM-13 (MLL-AF9) were obtained from American Type Culture Collection (ATCC; Rockville, Md.) and Deutsche Sammlung von Mikroorganismen and Zellkulturen (DSMZ; Braunschweig, Germany) respectively. […] Further, strong synergism is achieved when the CI value falls below 0.3.

[5] = system: MOLM-13 (MLL-AF9) cell line; assay: Combination proliferation study with Compound A2 (Example 1), MOLM-13; format: cell-based, human; settings: 7 Day Cotreatment; Chou-Talalay CI
Source text: as §3

| SMILES | Combination effect with Compound A2 on proliferation, MV4-11 [4] | Combination with Compound A2, MOLM-13 (MLL-AF9) (MOLM-13 (MLL-AF9)) | Combination with Compound A2, MV4-11 (MLL-AF4) (MV4-11 (MLL-AF4)) | also measured |
| --- | --- | --- | --- | --- |
| Nc1ncn([C@@H]2O[C@H](CO)[C@@H](O)[C@H]2O)c(=O)n1 [Azacitidine, azacitidine] |  |  |  | Combination studies with Compound A2, SKM-1 AML: Non-rearranged [1]: No Combination |
| COc1cccc2c1C(=O)c1c(O)c3c(c(O)c1C2=O)C[C@@](O)(C(C)=O)C[C@@H]3O[C@H]1C[C@H](N)[C@H](O)[C@H](C)O1 [Daunorubicin, daunorubicin] | Synergy (A combination index less than one indicates synergy) |  |  | Effect of Compound A2 on the antiproliferative activity of the second agent in SKM-1 (SKM-1 cells): did not affect the antiproliferative activity; Combination studies with Compound A2, MV4-11 MLL-AF4 [2]: acts synergistically; Combination studies with Compound A2, MOLM-13 MLL-AF9 [3]: acts synergistically; Combination with Compound A2, pre-treatment model with washout, MOLM-13 (MOLM-13 (MLL-AF9)): synergistic anti-proliferative activity was maintained; Combination with Compound A2, pre-treatment model, MOLM-13 (MOLM-13 (MLL-AF9)): synergistic antiproliferative activity; Combination with Compound A2, pre-treatment model with washout, MV4-11 (MV4-11 (MLL-AF4)): synergistic anti-proliferative activity was maintained; Combination with Compound A2, pre-treatment model, MV4-11 (MV4-11 (MLL-AF4)): synergistic antiproliferative activity; Combination studies with Compound A2, SKM-1 AML: Non-rearranged [1]: No Combination; Combination studies with Compound A2, SKM-1 AML: Non-rearranged ([1]; listed as daunorubicin): did not act synergistically |
| Nc1ncn([C@@H]2O[C@H](CO)[C@@H](O)[C@H]2O)c(=O)n1 [azacytidine, Azacytidine] |  | synergistic anti-proliferative activity | synergistic anti-proliferative activity | Effect of Compound A2 on the antiproliferative activity of the second agent in SKM-1 (SKM-1 cells): no impact on the antiproliferative activity |
| CC(C)C[C@H](NC(=O)[C@H](Cc1ccccc1)NC(=O)c1cnccn1)B(O)O [Velcade, bortezomib] |  | Combination Benefit | Combination Benefit |  |
| CC(C)(C)c1cc(NC(=O)Nc2ccc(-c3cn4c(n3)sc3cc(OCCN5CCOCC5)ccc34)cc2)no1 [Quizartinib] | synergy |  |  |  |
| CN(Cc1cnc2nc(N)nc(N)c2n1)c1ccc(C(=O)N[C@@H](CCC(=O)O)C(=O)O)cc1 [Methotrexate, methotrexate] |  | Antagonistic/Additive | Additive (additive effect by CI equal to 1) |  |
| O=C1c2c(O)ccc(O)c2C(=O)c2c(NCCNCCO)ccc(NCCNCCO)c21 [Mitoxantrone] | Synergy (A combination index less than one indicates synergy) |  |  |  |
| Cc1[nH]c2ccccc2c1CCNCc1ccc(/C=C/C(=O)NO)cc1 [Panobinostat] |  |  | Antagonistic (antagonism by CI>1) |  |
| Cc1sc2c(c1C)C(c1ccc(Cl)cc1)=N[C@@H](CC(=O)OC(C)(C)C)c1nnc(C)n1-2 [JQ1] |  | Additive (additive effect by CI equal to 1) | Additive (additive effect by CI equal to 1) |  |
| C[C@]12C=CC(=O)C=C1CC[C@@H]1[C@@H]2[C@@H](O)C[C@@]2(C)[C@H]1CC[C@]2(O)C(=O)CO [Prednisolone, prednisolone] |  | Antagonistic (antagonism by CI>1) | Antagonistic (antagonism by CI>1) |  |
| CC1(C)CCC(c2ccc(Cl)cc2)=C(CN2CCN(c3ccc(C(=O)NS(=O)(=O)c4ccc(N[C@H](CCN5CCOCC5)CSc5ccccc5)c(S(=O)(=O)C(F)(F)F)c4)cc3)CC2)C1 [Navitoclax] | synergy |  |  | Combination effect with Compound A2 on proliferation, MOLM-13 [5]: synergy |
| COc1cc2c(cc1-c1c(C)noc1C)ncc1[nH]c(=O)n([C@H](C)c3ccccn3)c12 [IBET-151] | Synergy (A combination index less than one indicates synergy) |  |  | Combination studies with Compound A2, SKM-1 AML: Non-rearranged [1]: IC50 not achieved |
| Nc1cccc2c1CN(C1CCC(=O)NC1=O)C2=O (stereo not drawn) [Lenalidomide, lenalidomide] |  | Combination Benefit | Combination Benefit |  |
| CC[C@]1(O)C[C@H]2CN(CCc3c([nH]c4ccccc34)[C@@](C(=O)OC)(c3cc4c(cc3OC)N(C=O)[C@H]3[C@@](O)(C(=O)OC)[C@H](OC(C)=O)[C@]5(CC)C=CCN6CC[C@]43[C@@H]65)C2)C1 [Vincristine, vincristine] |  | Additive (additive effect by CI equal to 1) | Additive (additive effect by CI equal to 1) |  |
| N[C@@H]1C[C@H]1c1ccccc1 (racemic) [Tranylcypromine] | synergy |  |  | Combination effect with Compound A2 on proliferation, MOLM-13 [5]: synergy |
| O=C(CCCCCCC(=O)Nc1ccccc1)NO [Vorinostat] |  | Additive/Synergy | Antagonistic (antagonism by CI>1) |  |
| Nc1ccn([C@@H]2O[C@H](CO)[C@@H](O)[C@@H]2O)c(=O)n1 [cytarabine] |  |  |  | Effect of Compound A2 on the antiproliferative activity of the second agent in SKM-1 (SKM-1 cells): did not affect the antiproliferative activity; Combination studies with Compound A2, MV4-11 MLL-AF4 [2]: acts synergistically; Combination with Compound A2, Compound A2 removed at day 7 ([3]; Molm-13, Compound A2 removed at day 7 prior to cytarabine): durable combination benefit; Combination studies with Compound A2, MOLM-13 MLL-AF9 [3]: acts synergistically; Combination with Compound A2, pre-treatment model with washout, MOLM-13 (MOLM-13 (MLL-AF9)): synergistic anti-proliferative activity was maintained; Combination with Compound A2, pre-treatment model, MOLM-13 (MOLM-13 (MLL-AF9)): synergistic antiproliferative activity; Combination with Compound A2, pre-treatment model with washout, MV4-11 (MV4-11 (MLL-AF4)): synergistic anti-proliferative activity was maintained; Combination with Compound A2, pre-treatment model, MV4-11 (MV4-11 (MLL-AF4)): synergistic antiproliferative activity; Combination studies with Compound A2, SKM-1 AML: Non-rearranged [1]: did not act synergistically |
| Nc1ncn([C@H]2C[C@H](O)[C@@H](CO)O2)c(=O)n1 [Decitabine, decitabine] |  |  |  | Combination studies with Compound A2, SKM-1 AML: Non-rearranged [1]: No Combination |
| Nc1ncn([C@@H]2O[C@H](CO)[C@@H](O)[C@H]2O)c(=O)n1 [Vidaza] | Synergy (A combination index less than one indicates synergy) |  |  |  |
